Laboratory results reported in patent publication US20230407243A1, “GENETIC PLATFORM TO INVESTIGATE THE FUNCTIONS OF BACTERIAL DRUG EFFLUX PUMPS” (priority 2022, published 2023).
Like-named read-outs stand apart in the source and are kept apart here.

How the values were obtained:
Format in all cases: cell-based, Escherichia coli
EKO-35 acrBD408A = system: EKO-35 acrBD408A
How it was run: (§1)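 MHB II, CLSI microdilution checkerboard, colony-resuspension inoculum, solvent controls per plate. MIC = no growth at OD600. FICI summed from FIC of PAβN/NMP and antibiotic; <0.5 synergistic, >2.0 antagonistic.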

wild-type E. coli K-12 = system: wild-type E. coli K-12
How it was run: as §1

EKO-35 = system: EKO-35
How it was run: as §1

ΔtolC = system: ΔtolC
How it was run: as §1

ΔtolC-Pore = system: ΔtolC-Pore
How it was run: as §1

[1] = system: EKO-35 porinated strain expressing acrD; test: Checkerboard synergy (FICI), porinated strain; conditions: acrD expressed in the porinated strain
How it was run: as §1

[2] = system: EKO-35 porinated strain expressing acrF (AcrEF); test: Checkerboard synergy (FICI), porinated strain
How it was run: as §1

[3] = system: EKO-35-Pore strains producing other efflux pumps; test: Checkerboard synergy (FICI), porinated strain
How it was run: as §1

[4] = system: EKO-35 strains producing different efflux pumps (EKO-35 araC::X); test: Checkerboard synergy (FICI) of PAβN or NMP with antibiotics
How it was run: as §1

[5] = EKO-35 acrBD408A, NMP + antibiotic
[6] = EKO-35 acrBD408A, PAβN + antibiotic
[7] = strain EKO-35 acrBD408A, NMP + antibiotic
[8] = strain ΔtolC Pore, NMP + antibiotic
[9] = EKO-35 acrEF Pore, NMP + antibiotic
[10] = EKO-35 acrEF Pore, PAβN + antibiotic
[11] = strain EKO-35 acrEF Pore, NMP + antibiotic
[12] = EKO-35 mdtEF Pore, PAβN + antibiotic
[13] = EKO-35 mdtEF, PAβN + antibiotic
[14] = strain EKO-35 acrB, NMP + antibiotic
[15] = strain EKO-35 acrEF, NMP + antibiotic
[16] = strain EKO-35 mdtEF, NMP + antibiotic

CC[C@H]1OC(=O)[C@H](C)[C@@H](O[C@H]2C[C@@](C)(OC)[C@@H](O)[C@H](C)O2)[C@H](C)[C@@H](O[C@@H]2O[C@H](C)C[C@H](N(C)C)[C@H]2O)[C@](C)(O)C[C@@H](C)C(=O)[C@H](C)[C@@H](O)[C@]1(C)O [erythromycin]
Effect (EKO-35 acrBD408A; [5]): Synergistic | FICI (EKO-35 acrBD408A; [5]): 0.500 | Effect (EKO-35 acrBD408A; [6]): Synergistic | FICI (EKO-35 acrBD408A; [6]): 0.190 | MICb Alone (EKO-35 acrBD408A; EKO-35 acrBD408A, antibiotic alone (PAβN checkerboard)): 2 µg/mL | MICb Combined (EKO-35 acrBD408A; EKO-35 acrBD408A, antibiotic in combination with PAβN): 0.13 µg/mL | Effect (EKO-35 acrBD408A; [7]): Synergistic (Synergy (FICI ≤0.5)) | FICI (EKO-35 acrBD408A; [7]): 0.500 | MICb Alone (EKO-35 acrBD408A; strain EKO-35 acrBD408A, antibiotic alone): 2 µg/mL | MICb Combined (EKO-35 acrBD408A; strain EKO-35 acrBD408A, antibiotic in combination with NMP): 0.5 µg/mL | Effect (wild-type E. coli K-12; K-12, NMP + antibiotic): Additive | FICI (wild-type E. coli K-12; K-12, NMP + antibiotic): 0.625 | Effect (wild-type E. coli K-12; K-12, PAβN + antibiotic): Synergistic | FICI (wild-type E. coli K-12; K-12, PAβN + antibiotic): 0.094 | MICb Alone (wild-type E. coli K-12; K-12, antibiotic alone (PAβN checkerboard)): 64 µg/mL | MICb Combined (wild-type E. coli K-12; K-12, antibiotic in combination with PAβN): 2 µg/mL | Effect (wild-type E. coli K-12; strain K-12, NMP + antibiotic): Additive (additive (FICI >0.5-1.0)) | FICI (wild-type E. coli K-12; strain K-12, NMP + antibiotic): 0.625 | MICb Combined (wild-type E. coli K-12; strain K-12, antibiotic in combination with NMP): 16 µg/mL | Effect (EKO-35; EKO-35, NMP + antibiotic): Synergistic | Effect (EKO-35; EKO-35, PAβN + antibiotic): Synergistic | FICI (EKO-35; EKO-35, PAβN + antibiotic): 0.093 | MICb Alone (EKO-35; EKO-35, antibiotic alone (PAβN checkerboard)): 2 µg/mL | MICb Combined (EKO-35; EKO-35, antibiotic in combination with PAβN): 0.06 µg/mL | interaction of NMP in combination with the labelled antibiotic (FICI) (EKO-35; EKO-35 and EKO-35 acrBD408A): low-level synergy | interaction of PAβN in combination with the labelled antibiotic (FICI) (EKO-35; efflux-deficient strains EKO-35, EKO-35 acrBD408A, ΔtolC): synergized | Effect (EKO-35; strain EKO-35, NMP + antibiotic): Synergistic (Synergy (FICI ≤0.5)) | MICb Alone (EKO-35; strain EKO-35, antibiotic alone): 2 µg/mL | MICb Combined (EKO-35; strain EKO-35, antibiotic in combination with NMP): 0.25 µg/mL | Effect (ΔtolC; strain ΔtolC, NMP + antibiotic): — (indifferent (FICI >1.0)) | FICI (ΔtolC; strain ΔtolC, NMP + antibiotic): 1.000 | MICb Alone (ΔtolC; strain ΔtolC, antibiotic alone): 4 µg/mL | MICb Combined (ΔtolC; strain ΔtolC, antibiotic in combination with NMP): 2 µg/mL | FICI (ΔtolC; ΔtolC, NMP + antibiotic): 1.000 | Effect (ΔtolC; ΔtolC, PAβN + antibiotic): Synergistic | FICI (ΔtolC; ΔtolC, PAβN + antibiotic): 0.188 | MICb Alone (ΔtolC; ΔtolC, antibiotic alone (PAβN checkerboard)): 4 µg/mL | MICb Combined (ΔtolC; ΔtolC, antibiotic in combination with PAβN): 0.25 µg/mL | Effect (ΔtolC-Pore; [8]): Synergistic (Synergy (FICI ≤0.5)) | FICI (ΔtolC-Pore; [8]): 0.625 | MICb Alone (ΔtolC-Pore; strain ΔtolC Pore, antibiotic alone): 4 µg/mL | MICb Combined (ΔtolC-Pore; strain ΔtolC Pore, antibiotic in combination with NMP): 0.5 µg/mL | Effect (ΔtolC-Pore; ΔtolC Pore, NMP + antibiotic): Synergistic | FICI (ΔtolC-Pore; ΔtolC Pore, NMP + antibiotic): 0.625 | Effect (ΔtolC-Pore; ΔtolC Pore, PAβN + antibiotic): Synergistic | FICI (ΔtolC-Pore; ΔtolC Pore, PAβN + antibiotic): 0.188 | MICb Alone (ΔtolC-Pore; ΔtolC Pore, antibiotic alone (PAβN checkerboard)): 1 µg/mL | MICb Combined (ΔtolC-Pore; ΔtolC Pore, antibiotic in combination with PAβN): 0.063 µg/mL | interaction of PAβN in combination with the labelled antibiotic (FICI) [1]: still observed | Effect [2, 9]: Additive | FICI [2, 9]: 0.750 | Effect [2, 10]: Synergistic | FICI [2, 10]: 0.385 | MICb Alone ([2]; EKO-35 acrEF Pore, antibiotic alone (PAβN checkerboard)): 0.5 µg/mL | MICb Combined ([2]; EKO-35 acrEF Pore, antibiotic in combination with PAβN): 0.13 µg/mL | Effect [2, 11]: Additive (additive (FICI >0.5-1.0)) | FICI [2, 11]: 0.750 | MICb Alone ([2]; strain EKO-35 acrEF Pore, antibiotic alone): 1 µg/mL | MICb Combined ([2]; strain EKO-35 acrEF Pore, antibiotic in combination with NMP): 0.5 µg/mL | Effect ([3]; EKO-35 mdtEF Pore, NMP + antibiotic): Additive | Effect [3, 12]: Synergistic | FICI [3, 12]: 0.185 | MICb Alone ([3]; EKO-35 mdtEF Pore, antibiotic alone (PAβN checkerboard)): 1 µg/mL | MICb Combined ([3]; EKO-35 mdtEF Pore, antibiotic in combination with PAβN): 0.06 µg/mL | Effect ([3]; strain EKO-35 mdtEF Pore, NMP + antibiotic): Additive (additive (FICI >0.5-1.0)) | MICb Alone ([3]; strain EKO-35 mdtEF Pore, antibiotic alone): 8 µg/mL | MICb Combined ([3]; strain EKO-35 mdtEF Pore, antibiotic in combination with NMP): 1 µg/mL | Effect ([4]; EKO-35 acrB, NMP + antibiotic): Additive | FICI ([4]; EKO-35 acrB, NMP + antibiotic): 0.531 | Effect ([4]; EKO-35 acrB, PAβN + antibiotic): Synergistic | FICI ([4]; EKO-35 acrB, PAβN + antibiotic): 0.078 | MICb Alone ([4]; EKO-35 acrB, antibiotic alone (PAβN checkerboard)): 64 µg/mL | MICb Combined ([4]; EKO-35 acrB, antibiotic in combination with PAβN): 1 µg/mL | FICI ([4]; EKO-35 acrEF, NMP + antibiotic): 2.000 | Effect ([4]; EKO-35 acrEF, PAβN + antibiotic): Synergistic | MICb Alone ([4]; EKO-35 acrEF, antibiotic alone (PAβN checkerboard)): 8 µg/mL | MICb Combined ([4]; EKO-35 acrEF, antibiotic in combination with PAβN): 0.5 µg/mL | Effect ([4]; EKO-35 mdtEF, NMP + antibiotic): Synergistic | FICI ([4]; EKO-35 mdtEF, NMP + antibiotic): 0.250 | Effect [4, 13]: Synergistic | FICI [4, 13]: 0.094 | MICb Alone ([4]; EKO-35 mdtEF, antibiotic alone (PAβN checkerboard)): 16 µg/mL | MICb Combined ([4]; EKO-35 mdtEF, antibiotic in combination with PAβN): 0.5 µg/mL | Effect ([4]; EKO-35 mexCD, NMP + antibiotic): Synergistic | Effect ([4]; EKO-35 mexCD, PAβN + antibiotic): Synergistic | MICb Alone ([4]; EKO-35 mexCD, antibiotic alone (PAβN checkerboard)): 8 µg/mL | MICb Combined ([4]; EKO-35 mexCD, antibiotic in combination with PAβN): 0.5 µg/mL | Effect [4, 14]: Additive (additive (FICI >0.5-1.0)) | FICI [4, 14]: 0.531 | MICb Combined ([4]; strain EKO-35 acrB, antibiotic in combination with NMP): 64 µg/mL | Effect [4, 15]: — (indifferent (FICI >1.0)) | FICI [4, 15]: 2.000 | MICb Alone ([4]; strain EKO-35 acrEF, antibiotic alone): 8 µg/mL | MICb Combined ([4]; strain EKO-35 acrEF, antibiotic in combination with NMP): 8 µg/mL | Effect [4, 16]: Synergistic (Synergy (FICI ≤0.5)) | FICI [4, 16]: 0.250 | MICb Alone ([4]; strain EKO-35 mdtEF, antibiotic alone): 64 µg/mL | MICb Combined ([4]; strain EKO-35 mdtEF, antibiotic in combination with NMP): 8 µg/mL | Effect ([4]; strain EKO-35 mexCD, NMP + antibiotic): Synergistic (Synergy (FICI ≤0.5)) | MICb Alone ([4]; strain EKO-35 mexCD, antibiotic alone): 16 µg/mL | MICb Combined ([4]; strain EKO-35 mexCD, antibiotic in combination with NMP): 2 µg/mL
